From patent US20250049812A1, “Compounds that Inhibit Necroptosis and Their Preparation Methods” (SHANGHAI INSTITUTE OF ORGANIC CHEMISTRY, CHINESE ACADEMY OF …, priority 2021, published 2025) come the findings set out here.

The structures appear in SMILES notation. Some results are limits rather than exact numbers.

For the test, the system named is Jurkat FADD (−/−) Cells. The test can be described thus: TNF-α induced necroptosis of Jurkat FADD-deficient cells (CellTiter-Glo cell survival). Format: cell-based, human. The note with it: Homo sapiens; TNF-α induced necroptosis, Jurkat FADD-deficient cells, 13 hours, CellTiter-Glo; read-out: IC50. The method, then:
1. Cell Activity Testing System (TNF-α Induces the Necroptosis of Jurkat Cells, the Human Leukemia Cells Deficient in FADD).
(1) Cell culture: Jurkat FADD-deficient cells were cultured in an RPMI 1640 medium with 10% fetal bovine serum (FBS), 100 U/mL penicillin, and 100 […]. The cells were cultured in a cell culture incubator at 37° C. with 5% CO2. And all the cells were cryopreserved in a complete medium containing 5-10% DMSO. Medium change and passage were performed 3-4 times per week.
(4) Experimental scheme: The system of TNF-α inducing the necroptosis of Jurkat FADD-deficient cells was used to screen for compounds with RIPKl kinase inhibitory activity.
Jurkat FADD-deficient cells were evenly inoculated into a 384-well plate with each well added with a 40 μL complete culture medium, followed by the addition of 5 μL of the under-testing compound to each well. The initial concentration of the compounds was set at 25 μM (for some compounds with higher activity, the initial concentration was set at 0.5 μM), with a three-fold gradient dilution, totaling 12 gradient points. Three replicate wells were set for each compound. In addition, there was a blank control group and a control group with TNFα stimulation only. After the compound was added, the mixture needed to be centrifuged and incubated in a cell culture incubator at 37° C. containing 5% CO2 for 1 hour. After that, 5 μL of 5 ng/mL TNFα was added to stimulate the occurrence of necroptosis. After centrifugation and mixing, the mixture was placed in the cell culture incubator for 13 hours (until the cell death rate reaches 65% in the group with only TNF-α), with a total volume of 50 μL per well. Then, the steps below were followed to test the cell survival rate.
The CellTiter-Glo® Buffer was removed from the reagent kit, equilibrated to room temperature, and used to dissolve the CellTiter-Glo® Substrate. The CellTiter-Glo® Reagent obtained could be directly used for the experiment.
15 μL of CellTiter-Glo® Reagent which has been equilibrated to room temperature was added to each well, and incubated in the dark for 15 minutes. After that, a microplate reader (Enspire Multimode Plate Reader of PerkinElmer, USA) was used to measure the chemiluminescence.
A general note: In ATP-based viability assays light output follows the ATP content of the culture.
As to `CN1C(=O)C(NC(=O)c2nnc(Cc3ccccc3)[nH]2)Cc2c[nH]c3cc(C#Cc4cnn(C)c4)cc1c23` (racemic) [T-45, (±)-5-benzyl-N-(1-methyl-8-((1-methyl-1H-pyrazol-4-yl)ethynyl)-2-oxo-2,3,4,6-tetrahydro-1H-aza [4,3,2-cd]indol-3-yl)-4H-1,2,4-triazole-3-carboxamide], the IC50 was under 0.01 µM.
The result for `CN1C(=O)C(NC(=O)c2nnc(Cc3ccccc3)[nH]2)Cc2cn(-c3ncccc3C(=O)O)c3cccc1c23` (racemic) [T-46, (±)-2-(3-(5-benzyl-4H-1,2,4-triazole-3-carboxamide)-1-methyl-2-oxo-1,2,3,4-tetrahydro-6H-azacyclo [4,3,2-cd]indol-6-yl)nicotinic Acid] reads 0.1 to 1 µM; that for `CN1C(=O)C(NC(=O)c2nnc(Cc3ccccc3)[nH]2)Cc2cn(-c3ncccc3O)c3cccc1c23` (racemic) [T-47, (±)-5-benzyl-N-(6-(3-hydroxypyridin-2-yl)-1-methyl-2-oxo-2,3,4,6-tetrahydro-1H-azacyclo [4,3,2-cd]indol-3-yl)-4H-1,2,4-triazole-3-carboxamide], 0.1 to 1 µM.
The result for `CN1C(=O)C(NC(=O)c2nnc(Cc3ccccc3)[nH]2)Cc2cn(-c3cnccc3CO)c3cccc1c23` (racemic) [T-48, (±)-5-benzyl-N-(6-(4-(hydroxymethyl)pyridin-3-yl)-1-methyl-2-oxo-2,3,4,6-tetrahydro-1H-azacyclo [4,3,2-cd]indol-3-yl)-4H-1,2,4-triazole-3-carboxamide] reads under 0.01 µM; that for `CN1C(=O)C(NC(=O)c2nnc(Cc3ccccc3)[nH]2)Cc2cn(-c3ncccc3CO)c3cccc1c23` (racemic) [T-49, (±)-5-benzyl-N-(6-(3-(hydroxymethyl)pyridin-2-yl)-1-methyl-2-oxo-2,3,4,6-tetrahydro-1H-azacyclo [4,3,2-cd]indol-3-yl)-4H-1,2,4-triazole-3-carboxamide], under 0.01 µM.
Consider `COC(=O)c1nccnc1-n1cc2c3c(cccc31)N(C)C(=O)C(NC(=O)c1nnc(Cc3ccccc3)[nH]1)C2` (racemic) [T-50, (±)-3-(3-(5-benzyl-4H-1,2,4-triazole-3-carboxamide)-1-methyl-2-oxo-1,2,3,4-tetrahydro-6H-azacyclo [4,3,2-cd]indol-6-yl)methyl pyrazine-2-carboxylate], for which the IC50 is under 0.01 µM.
The figure for `COC(=O)c1ncncc1-n1cc2c3c(cccc31)N(C)C(=O)C(NC(=O)c1nnc(Cc3ccccc3)[nH]1)C2` (racemic) [T-51, (±)-5-(3-(5-benzyl-4H-1,2,4-triazole-3-carboxamide)-1-methyl-2-oxo-1,2,3,4-tetrahydro-6H-azacyclo [4,3,2-cd]indol-6-yl)pyrimidine-4-carboxylic Acid Methyl Ester] is 0.01 to 0.1 µM; for `CN1C(=O)C(NC(=O)c2nnc(Cc3ccccc3)[nH]2)Cc2cn(-c3ncccc3C3CC3)c3cccc1c23` (racemic) [T-52, (±)-5-benzyl-N-(6-(3-cyclopropylpyridin-2-yl)-1-methyl-2-oxo-2,3,4,6-tetrahydro-1H-azacyclo [4,3,2-cd]indol-3-yl)-4H-1,2,4-triazole-3-carboxamide] it is under 0.01 µM.
Consider `CN1C(=O)C(NC(=O)c2nnc(Cc3ccccc3)[nH]2)Cc2cn(-c3ncccc3C(F)F)c3cccc1c23` (racemic) [T-53, (±)-5-benzyl-N-(6-(3-(difluoromethyl)pyridin-2-yl)-1-methyl-2-oxo-2,3,4,6-tetrahydro-1H-azacyclo [4,3,2-cd]indol-3-yl)-4H-1,2,4-triazole-3-carboxamide], for which the IC50 was under 0.01 µM.
The result for `CN1C(=O)C(NC(=O)c2nnc(Cc3ccccc3)[nH]2)Cc2cn(-c3ncccc3CF)c3cccc1c23` (racemic) [T-54, (±)-5-benzyl-N-(6-(3-(fluoromethyl)pyridin-2-yl)-1-methyl-2-oxo-2,3,4,6-tetrahydro-1H-azacyclo [4,3,2-cd]indol-3-yl)-4H-1,2,4-triazole-3-carboxamide] reads under 0.01 µM.
The result for `CN1C(=O)C(NC(=O)c2nnc(Cc3ccccc3)[nH]2)Cc2cn(-c3ncccc3C(C)(C)O)c3cccc1c23` (racemic) [T-55, (±)-5-benzyl-N-(6-(3-(2-hydroxypropan-2-yl)pyridin-2-yl)-1-methyl-2-oxy-2,3,4,6-tetrahydro-1H-azacyclo [4,3,2-cd]indol-3-yl)-4H-1,2,4-triazole-3-carboxamide] reads 0.01 to 0.1 µM; that for `CNC(=O)c1cccnc1-n1cc2c3c(cccc31)N(C)C(=O)C(NC(=O)c1nnc(Cc3ccccc3)[nH]1)C2` (racemic) [T-56, (±)-2-(3-(5-benzyl-4H-1,2,4-triazole-3-carboxamide)-1-methyl-2-oxy-1,2,3,4-tetrahydro-6H-azacyclo [4,3,2-cd]indol-6-yl)-N-methylnicotinamide], 0.01 to 0.1 µM.
The figure for `CN(C)C(=O)c1cccnc1-n1cc2c3c(cccc31)N(C)C(=O)C(NC(=O)c1nnc(Cc3ccccc3)[nH]1)C2` (racemic) [T-57, (±)-2-(3-(5-benzyl-4H-1,2,4-triazole-3-carboxamide)-1-methyl-2-oxy-1,2,3,4-tetrahydro-6H-azacyclo [4,3,2-cd]indol-6-yl)-N,N-dimethylnicotinamide] is 0.1 to 1 µM; for `CC(O)c1cccnc1-n1cc2c3c(cccc31)N(C)C(=O)C(NC(=O)c1nnc(Cc3ccccc3)[nH]1)C2` (racemic) [T-58, (±)-5-benzyl-N-(6-(3-(1-hydroxyethyl)pyridin-2-yl)-1-methyl-2-oxo-2,3,4,6-tetrahydro-1H-azacyclo [4,3,2-cd]indol-3-yl)-4H-1,2,4-triazole-3-carboxamide] it is 0.01 to 0.1 µM; for `CC(=O)c1cccnc1-n1cc2c3c(cccc31)N(C)C(=O)C(NC(=O)c1nnc(Cc3ccccc3)[nH]1)C2` (racemic) [T-59, (±)-N-(6-(3-acetylpyridin-2-yl)-1-methyl-2-oxo-2,3,4,6-tetrahydro-1H-azacyclo [4,3,2-cd]indol-3-yl)-5-benzyl-4H-1,2,4-triazole-3-carboxamide] it is under 0.01 µM.
`CN1C(=O)C(N2CCc3c(nn(Cc4ccccc4)c3Cl)C2=O)Cc2cn(-c3ncccc3C(F)(F)F)c3cccc1c23` (racemic) [T-60, (±)-3-(2-benzyl-3-chloro-7-oxo-2,4,5,7-tetrahydro-6H-pyrazole [3,4-c]pyridin-6-yl)-1-methyl-6(3-(trifluoromethyl)pyridin-2-yl)-1,3,4,6-tetrahydro-2H-azepine [4,3,2-cd] indole-2-one]: the IC50 was under 0.01 µM.
With `CN1C(=O)C(NC(=O)c2nnc(Cc3ccccc3)[nH]2)Cc2cn(-c3ncccc3C(N)=O)c3cccc1c23` (racemic) [T-61, (±)-2-(3-(5-benzyl-4H-1,2,4-triazole-3-carboxamide)-1-methyl-2-oxy-1,2,3,4-tetrahydro-6H-azacyclo [4,3,2-cd]indol-6-yl)nicotinamide], the concentration for half-maximal inhibition (IC50) was in the range of 0.01 to 0.1 µM.
The figure for `CN1C(=O)C(NC(=O)c2nnc(Cc3ccccc3)[nH]2)Cc2cn(-c3ncccc3Cl)c3cccc1c23` (racemic) [T-62, (±)-5-benzyl-N-(6-(3-chloropyridin-2-yl)-1-methyl-2-oxo-2,3,4,6-tetrahydro-1H-azacyclo [4,3,2-cd]indol-3-yl)-4H-1,2,4-triazole-3-carboxamide] is under 0.01 µM; for `CN1C(=O)C(NC(=O)c2ncc(Cc3ccccc3)o2)Cc2cn(-c3ncccc3C(F)(F)F)c3cccc1c23` (racemic) [T-63, (±)-5-benzyl-N-(1-methyl-2-oxo-6-(3-(trifluoromethyl)pyridin-2-yl)-2,3,4,6-tetrahydro-1H-azacyclo [4,3,2-cd]indol-3-yl) oxazole-2-carboxamide] it is under 0.01 µM; for `COc1ccc(C)nc1-n1cc2c3c(cccc31)N(C)C(=O)C(NC(=O)c1nnc(Cc3ccccc3)[nH]1)C2` (racemic) [T-64, (±)-5-benzyl-N-(6-(3-methoxy-6-methylpyridin-2-yl)-1-methyl-2-oxo-2,3,4,6-tetrahydro-1H-azacyclo [4,3,2-cd]indol-3-yl)-4H-1,2,4-triazole-3-carboxamide] it is under 0.01 µM.
With `CC(C)c1cccnc1-n1cc2c3c(cccc31)N(C)C(=O)C(NC(=O)c1nnc(Cc3ccccc3)[nH]1)C2` (racemic) [T-65, (±)-5-benzyl-N-(6-(3-isopropylpyridin-2-yl)-1-methyl-2-oxo-2,3,4,6-tetrahydro-1H-azacyclo [4,3,2-cd]indol-3-yl)-4H-1,2,4-triazole-3-carboxamide], the half-inhibitory concentration (IC50) is 0.01 to 0.1 µM.
Regarding `CN1C(=O)C(NC(=O)c2nnc(Cc3ccccc3)[nH]2)Cc2cn(-c3ncccc3C(=O)OC3CC3)c3cccc1c23` (racemic) [T-66, (±)-2-(3-(5-benzyl-4H-1,2,4-triazole-3-carboxamide)-1-methyl-2-oxo-1,2,3,4-tetrahydro-6H-azacyclo [4,3,2-cd]indol-6-yl)nicotinic Acid Cyclopropane], the IC50 was under 0.01 µM.

The IC50 is the midpoint of a concentration-inhibition curve.
